Laboratory results reported in BigSolDB 2.1.

O=C1NS(=O)(=O)c2ccccc21 gave a solubility (mole fraction) (in acetonitrile, 293.15 K) of 0.00739, a solubility (mole fraction) (in acetonitrile, 298.15 K) of 0.00809 and a solubility (mole fraction) (in acetonitrile, 303.15 K) of 0.00936. For the same compound, the solubility (mole fraction) (in acetonitrile, 308.15 K) was 0.0105, the solubility (mole fraction) (in acetonitrile, 313.15 K) was 0.012 and the solubility (mole fraction) (in acetonitrile, 318.15 K) was 0.0143. It also gave a solubility (mole fraction) (in acetonitrile, 323.15 K) of 0.0157, a solubility (mole fraction) (in ethanol, 293.15 K) of 0.00821 and a solubility (mole fraction) (in ethanol, 298.15 K) of 0.00924. It also gave a solubility (mole fraction) (in ethanol, 303.15 K) of 0.0108, a solubility (mole fraction) (in ethanol, 308.15 K) of 0.0121 and a solubility (mole fraction) (in ethanol, 313.15 K) of 0.0144. For the same compound, the solubility (mole fraction) (in ethanol, 318.15 K) was 0.0169, the solubility (mole fraction) (in ethanol, 323.15 K) was 0.0196 and the solubility (mole fraction) (in isopropanol, 293.15 K) was 0.00792. It also gave a solubility (mole fraction) (in isopropanol, 298.15 K) of 0.00942, a solubility (mole fraction) (in isopropanol, 303.15 K) of 0.011 and a solubility (mole fraction) (in isopropanol, 308.15 K) of 0.013. It also gave a solubility (mole fraction) (in isopropanol, 313.15 K) of 0.016, a solubility (mole fraction) (in isopropanol, 318.15 K) of 0.0193 and a solubility (mole fraction) (in isopropanol, 323.15 K) of 0.0231. The solubility (mole fraction) (in methanol, 293.15 K) was 0.00927, the solubility (mole fraction) (in methanol, 298.15 K) was 0.0102 and the solubility (mole fraction) (in methanol, 303.15 K) was 0.012. The solubility (mole fraction) (in methanol, 308.15 K) was 0.0136, the solubility (mole fraction) (in methanol, 313.15 K) was 0.0161 and the solubility (mole fraction) (in methanol, 318.15 K) was 0.0187. The solubility (mole fraction) (in methanol, 323.15 K) was 0.0218.
